Source: US20220372014A1, “NEUROPROTECTIVE COMPOUNDS AND METHODS OF USE THEREOF” (The Johns Hopkins University, priority 2019, published 2022)

Legend:
[1] = target: T1, MIF (Homo sapiens, UniProt P14174); experiment: Nuclease assay of Example 3 (MIF inhibitory activity, Table 4); format: biochemical; design: (%) inhibition of MIF nuclease activity: concentration or dose not given beside the values; details: for (%) inhibition of MIF nuclease activity: nuclease assay of Example 3
T1 sequence (P14174 1-115): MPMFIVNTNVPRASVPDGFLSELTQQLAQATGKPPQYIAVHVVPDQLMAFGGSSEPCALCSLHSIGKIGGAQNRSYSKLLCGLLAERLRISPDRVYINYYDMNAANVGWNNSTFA
Method in brief: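 Human genomic DNA (200 ng), pcDNA (200 ng) or PS^30-type substrates (1 μM) were incubated with MIF (0.25-8 μM final) in 10 mM Tris-HCl pH 7.0, 10 mM MgCl2, 1 mM DTT at 37 °C for 1 h (pcDNA, small substrates) or 4 h (genomic DNA). Cleavage was assessed by agarose or PAGE electrophoresis with EtBr staining and chemiluminescent detection of biotin-labelled DNA.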

[2] = test system: HeLa cells or neuronal cells; experiment: Cell death assay of Example 3 (MNNG, alamarBlue; protection against parthanatos, Table 4); format: cell-based; details: 1 μM test compound; for (%) inhibition of cell death: MNNG-induced cell death, alamarBlue
Method in brief: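 HeLa or neuronal cells (1×10^4/well) were pretreated 1 h at 37° C with 1 μM compound, exposed to MNNG for 15 min, washed, then re-incubated 18 h with 1 μM compound. Viability was read by alamarBlue fluorescence (ex 560/em 590 nm). Cell death was expressed relative to control wells.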

SMILES | (%) inhibition of MIF nuclease activity [1] | (%) inhibition of cell death [2] | MIF nuclease activity [1] | protection against parthanatos (cell death) [2] | (%) inhibition of cell death ([2]; 1 µM)
COc1ccc(CC[C@H]2OC(=O)[C@@H]3CCCCN3C(=O)C(=O)C(C)(C)COC(=O)C=CCCN(C)C(=O)[C@@H](CC(C)C)NC(=O)[C@H](Cc3ccccc3)N(C)C(=O)[C@@H](C)NC(=O)CN(C)C(=O)COc3cccc2c3)cc1OC [compound 67] | 76.3% | 73.7% | – | – | –
COc1ccc(CC[C@H]2OC(=O)[C@@H]3CCCCN3C(=O)C(=O)C(C)(C)COC(=O)C=CCCN(C)C(=O)[C@H](CC3CCCCC3)NC(=O)[C@H](COC(C)(C)C)N(C)C(=O)C(c3ccccc3)NC(=O)CN(C)C(=O)COc3cccc2c3)cc1OC (stereo partly shown) [compound 42] | 40.8% | 53.2% | – | – | –
C[C@H]1C(=O)NC(c2ccccc2)C(=O)N(C)[C@@H](COC(C)(C)C)C(=O)N2CCC[C@H]2C(=O)N(C)CCC=CC(=O)OCC(C)(C)C(=O)C(=O)N2CCCC[C@H]2C(=O)O[C@H](CCc2ccccc2)c2cccc(c2)OCC(=O)N1C (stereo partly shown) [compound 149] | −11.8% | 51.0% | – | – | –
COc1ccc(CC[C@H]2OC(=O)[C@@H]3CCCCN3C(=O)C(=O)C(C)(C)COC(=O)C=CCCN(C)C(=O)[C@H](Cc3ccc(F)cc3)NC(=O)[C@H](COC(C)(C)C)N(C)C(=O)C(c3ccccc3)NC(=O)[C@H](C)N(C)C(=O)COc3cccc2c3)cc1OC (stereo partly shown) [compound 55] | 13.6% | 59.9% | – | – | –
COc1ccc(CC[C@H]2OC(=O)[C@@H]3CCCCN3C(=O)C(=O)C(C)(C)COC(=O)C=CCCN(C)C(=O)[C@H](C)NC(=O)[C@H](COC(C)(C)C)N(C)C(=O)[C@H](Cc3ccc4ccccc4c3)NC(=O)[C@H](C)N(C)C(=O)COc3cccc2c3)cc1OC [compound 17] | 63.7% | 78.3% | – | – | –
COc1ccc(CC[C@H]2OC(=O)[C@@H]3CCCCN3C(=O)C(=O)C(C)(C)COC(=O)C=CCCN(C)C(=O)[C@H](C(C)C)NC(=O)[C@H](COC(C)(C)C)N(C)C(=O)C(c3ccccc3)NC(=O)[C@H](C)N(C)C(=O)COc3cccc2c3)cc1OC (stereo partly shown) [compound 59] | 13.3% | 58.9% | – | – | –
COCC[C@@H]1NC(=O)[C@H](COC(C)(C)C)N(C)C(=O)C(c2ccccc2)NC(=O)[C@H](C)N(C)C(=O)COc2cccc(c2)[C@@H](CCc2ccc(OC)c(OC)c2)OC(=O)[C@@H]2CCCCN2C(=O)C(=O)C(C)(C)COC(=O)C=CCCN(C)C1=O (stereo partly shown) [compound 50] | 18.0% | 56.4% | – | – | –
COCC[C@@H]1NC(=O)[C@H](Cc2ccccc2)N(C)C(=O)[C@@H](C)NC(=O)CN(C)C(=O)COc2cccc(c2)[C@@H](CCc2ccc(OC)c(OC)c2)OC(=O)[C@@H]2CCCCN2C(=O)C(=O)C(C)(C)COC(=O)C=CCCN(C)C1=O [compound 65] | 20.1% | 54.4% | – | – | –
COc1ccc(CC[C@H]2OC(=O)[C@@H]3CCCCN3C(=O)C(=O)C(C)(C)COC(=O)C=CCCN(C)C(=O)[C@H](C(C)C)NC(=O)[C@H](C(C)C)N(C)C(=O)[C@@H](Cc3ccccc3)NC(=O)[C@H](CC(C)C)N(C)C(=O)CCC(=O)Nc3cccc2c3)cc1OC [compound 89] | 12.6% | 49.9% | – | – | –
COc1ccc(CC[C@H]2OC(=O)[C@@H]3CCCCN3C(=O)C(=O)C(C)(C)COC(=O)C=CCCN(C)C(=O)[C@@H](CC(C)C)NC(=O)[C@H](C(C)C)N(C)C(=O)[C@@H](Cc3ccccc3)NC(=O)[C@H](CC(C)C)N(C)C(=O)CCC(=O)Nc3cccc2c3)cc1OC [compound 82] | 8.5% | 47.0% | – | – | –
COc1ccc(CC[C@H]2OC(=O)[C@@H]3CCCCN3C(=O)C(=O)C(C)(C)COC(=O)C=CCCN(C)C(=O)[C@@H]3CCCN3C(=O)[C@H](COCc3ccccc3)N(C)C(=O)C(c3ccccc3)NC(=O)[C@H](C)N(C)C(=O)COc3cccc2c3)cc1OC (stereo partly shown) [compound 96] | 32.7% | 69.1% | – | – | –
COc1cc(O)c(CC[C@H]2OC(=O)[C@@H]3CCCCN3C(=O)C(=O)C(C)(C)COC(=O)C=CCCN(C)C(=O)[C@@H]3CCCN3C(=O)[C@H](COC(C)(C)C)N(C)C(=O)C(c3ccccc3)NC(=O)[C@H](C)N(C)C(=O)COc3cccc2c3)cc1OC (stereo partly shown) [compound 116] | −4.7% | 50.9% | – | – | –
COc1cc(CC[C@H]2OC(=O)[C@@H]3CCCCN3C(=O)C(=O)C(C)(C)COC(=O)C=CCCN(C)C(=O)[C@@H]3CCCN3C(=O)[C@H](COC(C)(C)C)N(C)C(=O)C(c3ccccc3)NC(=O)[C@H](C)N(C)C(=O)COc3cccc2c3)cc(F)c1OC (stereo partly shown) [compound 111] | 6.8% | 48.9% | – | – | –
COc1ccc(CC[C@H]2OC(=O)[C@@H]3CCCCN3C(=O)C(=O)C(C)(C)COC(=O)C=CCCN(C)C(=O)[C@@H]3CCCN3C(=O)[C@H](COC(C)(C)C)N(C)C(=O)[C@H](Cc3ccc4ccccc4c3)NC(=O)[C@H](C)N(C)C(=O)COc3cccc2c3)cc1OC [compound 26] | 64.9% | 71.2% | – | – | –
COc1ccc(CC[C@H]2OC(=O)[C@@H]3CCCCN3C(=O)C(=O)C(C)(C)COC(=O)C=CCCN(C)C(=O)[C@H](CC(C)C)NC(=O)[C@H](C(C)C)N(C)C(=O)[C@@H](Cc3ccccc3)NC(=O)[C@H](CC(C)C)N(C)C(=O)CCC(=O)Nc3cccc2c3)cc1OC [compound 81] | 12.3% | 49.8% | – | – | –
COc1ccc(CC[C@H]2OC(=O)[C@@H]3CCCCN3C(=O)C(=O)C(C)(C)COC(=O)C=CCCN(C)C(=O)[C@@H]3CCCN3C(=O)[C@H](COC(C)(C)C)N(C)C(=O)C(c3ccccc3)NC(=O)[C@H](C)N(C)C(=O)COc3cccc2c3)c(OC)c1OC (stereo partly shown) [compound 124] | −2.7% | 55.9% | – | – | –
COc1ccc(CC[C@H]2OC(=O)[C@@H]3CCCCN3C(=O)C(=O)C(C)(C)COC(=O)C=CCCN(C)C(=O)[C@@H]3CCCN3C(=O)[C@H](COC(C)(C)C)N(C)C(=O)C(c3ccccc3)NC(=O)[C@H](C)N(C)C(=O)COc3cc2ccc3F)cc1OC (stereo partly shown) [compound 114] | −2.4% | 44.9% | – | – | –
COc1ccc(CC[C@H]2OC(=O)[C@@H]3CCCCN3C(=O)C(=O)C(C)(C)COC(=O)C=CCCN(C)C(=O)[C@H](c3ccccc3)NC(=O)C(C(C)C)N(C)C(=O)[C@@H](Cc3ccccc3)NC(=O)[C@H](CC(C)C)N(C)C(=O)CCC(=O)Nc3cccc2c3)cc1OC (stereo partly shown) [compound 90] | 15.8% | 48.5% | – | – | –
COc1ccc(CC[C@H]2OC(=O)[C@@H]3CCCCN3C(=O)C(=O)C(C)(C)COC(=O)C=CCCN(C)C(=O)[C@@H]3CCCN3C(=O)[C@H](COC(C)(C)C)N(C)C(=O)C(c3ccccc3)NC(=O)[C@H](C)N(C)C(=O)COc3cccc2c3F)cc1OC (stereo partly shown) [compound 125] | 2.4% | 63.4% | do not inhibit MIF nuclease activity | protect against parthanatos | –
COc1ccc(CC[C@H]2OC(=O)[C@@H]3CCCCN3C(=O)C(=O)C(C)(C)COC(=O)C=CCCN(C)C(=O)[C@@H]3CCCN3C(=O)[C@H](CO)N(C)C(=O)C(c3ccccc3)NC(=O)C(CO)N(C)C(=O)COc3cccc2c3)cc1OC (stereo partly shown) [compound 108] | 4.2% | 20.4% | – | – | –
COc1ccc(CC[C@H]2OC(=O)[C@@H]3CCCCN3C(=O)C(=O)C(C)(C)COC(=O)C=CCCN(C)C(=O)[C@@H]3CCCN3C(=O)[C@H](COC(C)(C)C)N(C)C(=O)[C@H](Cc3ccc(C#N)cc3)NC(=O)[C@H](C)NC(=O)COc3cccc2c3)cc1OC [compound 143] | −1.1% | 46.7% | – | – | –
COc1ccc(CC[C@H]2OC(=O)[C@@H]3CCCCN3C(=O)C(=O)C(C)(C)COC(=O)C=CCCN(C)C(=O)[C@H](Cc3ccc4ccccc4c3)NC(=O)[C@H](COC(C)(C)C)N(C)C(=O)C(c3ccccc3)NC(=O)[C@H](C)N(C)C(=O)COc3cccc2c3)cc1OC (stereo partly shown) [compound 58] | 16.5% | 56.1% | – | – | –
COc1ccc(CC[C@H]2OC(=O)[C@@H]3CCCCN3C(=O)C(=O)C(C)(C)COC(=O)C=CCCN(C)C(=O)[C@@H](C)NC(=O)[C@H](C(C)C)N(C)C(=O)[C@@H](Cc3ccccc3)NC(=O)[C@H](CC(C)C)N(C)C(=O)CCC(=O)Nc3cccc2c3)cc1OC [compound 78] | 9.0% | 44.7% | – | – | –
COc1ccc(CC[C@H]2OC(=O)[C@@H]3CCCCN3C(=O)C(=O)C(C)(C)COC(=O)C=CCCN(C)C(=O)[C@H](C)N(C)C(=O)[C@H](COC(C)(C)C)N(C)C(=O)C(c3ccccc3)NC(=O)[C@H](C)N(C)C(=O)COc3cccc2c3)cc1OC (stereo partly shown) [compound 94] | 12.0% | 12.1% | – | – | –
COc1ccc(CC[C@H]2OC(=O)[C@@H]3CCCCN3C(=O)C(=O)C(C)(C)COC(=O)C=CCCN(C)C(=O)[C@@H]3CCCN3C(=O)[C@H](COC(C)(C)C)N(C)C(=O)C(c3ccccc3)NC(=O)CN(C)C(=O)COc3cccc2c3)cc1OC (stereo partly shown) [compound 107] | 20.0% | – | – | – | 15.1%
